# Laboratory results taken from patent publication US10294202B2, “Pyrrolidinones as herbicides” (FMC Corporation, priority 2013, dated 2019).
# Key:
# barnyardgrass [1] = assay: Test A pre-/postemergence herbicide test; assay type: in vivo, Echinochloa crus-galli
# Outline: (§1)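 Formulated compound (non-phytotoxic solvent, surfactant) sprayed pre- onto soil of seeded loam/sand pots or post- onto seedlings at 1–2 leaves; ~10 d greenhouse; 0–100 visual control rating versus untreated.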
# kochia = assay: Test A pre-/postemergence herbicide test; assay type: in vivo, Kochia scoparia; details: for Plant response rating, Kochia: 0 to 100 scale
# Outline: as §1
# ragweed = assay: Test A pre-/postemergence herbicide test; assay type: in vivo, Ambrosia elatior; details: for Plant response rating, Ragweed: 0 to 100 scale
# Outline: as §1
# ryegrass, Italian = assay: Test A pre-/postemergence herbicide test; assay type: in vivo, Lolium multiflorum; details: for Plant response rating, Ryegrass, Italian: 0 to 100 scale
# Outline: as §1
# giant foxtail = assay: Test A pre-/postemergence herbicide test; assay type: in vivo, Setaria faberii; details: for Plant response rating, Foxtail, Giant: 0 to 100 scale
# Outline: as §1
# pigweed = assay: Test A pre-/postemergence herbicide test; assay type: in vivo, Amaranthus retroflexus; details: for Plant response rating, Pigweed: 0 to 100 scale
# Outline: as §1
# wheat = assay: Test A pre-/postemergence herbicide test; assay type: in vivo, Triticum aestivum; details: Postemergence; for Plant response rating, Wheat: 125 g ai/ha, 0 to 100 scale, 0 no effect, 100 complete control; for Wheat plant response rating (0 to 100 scale, 0 is no effect, 100 is complete control): 500 g ai/ha
# Outline: as §1
# corn = assay: Test A pre-/postemergence herbicide test; assay type: in vivo, Zea mays; details: Postemergence
# Outline: as §1
# blackgrass = assay: Test A postemergence herbicide test; assay type: in vivo, Alopecurus myosuroides
# Outline: (§2)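 Young potted plants in a loam–sand mix, one- to two-leaf stage and 2–10 cm tall, receive the test chemical postemergence and stay in a greenhouse for approximately 10 days. Injury is then judged by eye against untreated plants, scored 0 (none) to 100 (complete control).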
# galium = assay: Test A postemergence herbicide test; assay type: in vivo, Galium aparine; details: for Plant response rating, Galium: 125 g ai/ha, 0 to 100 scale, 0 no effect, 100 complete control; for Galium plant response rating (0 to 100 scale, 0 is no effect, 100 is complete control): 500 g ai/ha
# Outline: as §2
# rice = assay: Test B flooded paddy test; assay type: in vivo, Oryza sativa; details: 500 g ai/ha, Flood; scale of 0 to 100 where 0 is no effect and 100 is complete control
# Outline: (§3)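 Treatment was made at the 2-leaf stage by dosing the standing floodwater, kept 3 cm above soil level for the whole test. Greenhouse exposure lasted 13 to 15 days. Response is a visual percent rating relative to controls, where a dash indicates no test result.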
# sedge, umbrella = assay: Test B flooded paddy test; assay type: in vivo, Cyperus difformis; details: 500 g ai/ha, Flood; scale of 0 to 100 where 0 is no effect and 100 is complete control
# Outline: as §3
# ducksalad = assay: Test B flooded paddy test; assay type: in vivo, Heteranthera limosa; details: 500 g ai/ha, Flood; scale of 0 to 100 where 0 is no effect and 100 is complete control
# Outline: as §3
# barnyardgrass [2] = assay: Test B flooded paddy test; assay type: in vivo, Echinochloa crus-galli; details: 500 g ai/ha, Flood; scale of 0 to 100 where 0 is no effect and 100 is complete control
# Outline: as §3
# [3] = 125 g ai/ha, visual rating, 0 to 100 scale, 0 no effect, 100 complete control, approximately 10 days, preemergence
# [4] = Postemergence, 125 g ai/ha, 0 to 100 scale, 0 no effect, 100 complete control
# [5] = preemergence, 500 g ai/ha, 0 to 100 scale (0 no effect, 100 complete control)
# [6] = 125 g ai/ha, visual rating, 0 no effect, 100 complete control, approximately 10 days, preemergence
# [7] = Postemergence, 125 g ai/ha, 0 no effect, 100 complete control
# [8] = 125 g ai/ha, 0 to 100 scale, 0 no effect, 100 complete control
# [9] = 500 g ai/ha, 0 to 100 scale (0 no effect, 100 complete control)
SMILES,"Plant response rating, Barnyardgrass (barnyardgrass [1]; [3])","Plant response rating, Barnyardgrass (barnyardgrass [1]; [4])","Plant response rating, Barnyardgrass (barnyardgrass [1]; [5])","Plant response rating, Kochia (kochia; [6])","Plant response rating, Kochia (kochia; [7])","Kochia plant response rating (0 to 100 scale, 0 is no effect, 100 is complete control) (kochia; Postemergence, 500 g ai/ha)","Plant response rating, Kochia (kochia; preemergence, 500 g ai/ha)","Plant response rating, Ragweed (ragweed; [6])","Plant response rating, Ragweed (ragweed; [7])","Ragweed plant response rating (0 to 100 scale, 0 is no effect, 100 is complete control) (ragweed; Postemergence, 500 g ai/ha)","Plant response rating, Ragweed (ragweed; preemergence, 500 g ai/ha)","Plant response rating, Ryegrass, Italian (ryegrass, Italian; [6])","Plant response rating, Ryegrass, Italian (ryegrass, Italian; [7])","Ryegrass, Italian plant response rating (0 to 100 scale, 0 is no effect, 100 is complete control) (ryegrass, Italian; Postemergence, 500 g ai/ha)","Plant response rating, Ryegrass, Italian (ryegrass, Italian; preemergence, 500 g ai/ha)","Plant response rating, Foxtail, Giant (giant foxtail; [6])","Plant response rating, Foxtail, Giant (giant foxtail; [7])","Foxtail, Giant plant response rating (0 to 100 scale, 0 is no effect, 100 is complete control) (giant foxtail; Postemergence, 500 g ai/ha)","Plant response rating, Foxtail, Giant (giant foxtail; preemergence, 500 g ai/ha)","Plant response rating, Pigweed (pigweed; [6])",also measured
Cc1cc(C2CNC(=O)C2C(=O)Nc2ccc(F)c(F)c2F)ccc1F (racemic) [Compound 142],90,80,90,0,0,0,0,0,0,0,0,0,0,20,0,70,0,50,90,0,"Barnyardgrass plant response rating (0 to 100 scale, 0 is no effect, 100 is complete control) (barnyardgrass [1]; Postemergence, 500 g ai/ha): 90; Plant response rating, Pigweed (pigweed; [7]): 0; Pigweed plant response rating (0 to 100 scale, 0 is no effect, 100 is complete control) (pigweed; Postemergence, 500 g ai/ha): 0; Plant response rating, Pigweed (pigweed; preemergence, 500 g ai/ha): 0; Plant response rating, Wheat (wheat): 0; Wheat plant response rating (0 to 100 scale, 0 is no effect, 100 is complete control) (wheat): 20; Plant response rating, Corn (corn; [8]): 0; Corn plant response rating (0 to 100 scale, 0 is no effect, 100 is complete control) (corn; 500 g ai/ha): 0; Plant response rating, Blackgrass (blackgrass; [8]): 0; Blackgrass plant response rating (0 to 100 scale, 0 is no effect, 100 is complete control) (blackgrass; 500 g ai/ha): 30; Plant response rating, Galium (galium): 0; Galium plant response rating (0 to 100 scale, 0 is no effect, 100 is complete control) (galium): 40; Plant response rating, Rice (rice): 0; Plant response rating, Sedge, Umbrella (sedge, umbrella): 0; Plant response rating, Ducksalad (ducksalad): 100; Plant response rating, Barnyardgrass (barnyardgrass [2]): 75"
O=C1NCC(c2ccc(F)cc2)C1C(=O)Nc1ccccc1OC(F)F (racemic) [Compound 118],50,0,70,0,10,50,0,0,0,0,0,0,0,0,0,90,50,80,90,0,"Plant response rating, Barnyardgrass (barnyardgrass [1]; Postemergence, 500 g ai/ha, 0 to 100 scale (0 no effect, 100 complete control)): 60; Plant response rating, Pigweed (pigweed; [7]): 0; Pigweed plant response rating (0 to 100 scale, 0 is no effect, 100 is complete control) (pigweed; Postemergence, 500 g ai/ha): 0; Plant response rating, Pigweed (pigweed; preemergence, 500 g ai/ha): 0; Plant response rating, Wheat (wheat): 0; Wheat plant response rating (0 to 100 scale, 0 is no effect, 100 is complete control) (wheat): 0; Plant response rating, Corn (corn; [8]): 0; Plant response rating, Corn (corn; [9]): 0; Plant response rating, Blackgrass (blackgrass; [8]): 0; Plant response rating, Blackgrass (blackgrass; [9]): 0; Plant response rating, Galium (galium): 50; Galium plant response rating (0 to 100 scale, 0 is no effect, 100 is complete control) (galium): 60; Plant response rating, Rice (rice): 0; Plant response rating, Sedge, Umbrella (sedge, umbrella): 0; Plant response rating, Ducksalad (ducksalad): 100; Plant response rating, Barnyardgrass (barnyardgrass [2]): 20"
